System: NCI-N87 (human stomach cancer)
Assay: Combination of Compound 1 and other antitumor agents (in vitro), CellTiter-Glo, median effect method
Format: cell-based
Protocol: The supplier of each reagent, the suppliers of tumor cell lines, the media used, and the numbers of cells to be inoculated are shown in the tables below.
The cells were inoculated at 20 μL/well to a 384-well culture plate (Corning Inc.). The plate inoculated with the cells were cultured in an incubator set to 37° C. and 5% CO2. On the day following inoculation, each of mixed solutions of Compound 1 and each other antitumor agent at varying combinations of concentrations was added to the cells. Specifically, 8 serial dilutions (including (0 nM)) of Compound 1 and 10 serial dilutions (including (0 nM)) of the other antitumor agent were prepared using Leibovitz's L-15 medium containing 10% FBS, or ATCC formulated RPMI-1640 medium containing 10% FBS. Drug solutions in which equal amounts of the respective serial dilutions of the compounds were dispensed were mixed at a ratio of 1:1 to prepare a total of 80 mixed drug solutions including every combination. Each of these mixed drug solutions was added at 5 μL/well (N=4) to the plate, followed by further culture for 3 days under conditions of 37° C. and 5% CO2.
Three days later, CellTiter-Glo™ 2.0 Reagent (Promega Corporation) was added thereto at 25 μL/well, and chemiluminescence was measured using a plate reader (EnSpire® Multimode Plate Reader, PerkinElmer Japan Co., Ltd.).
The enhancement of an effect by combined use of the drugs was evaluated according to a method known in the art (a method described in Trends Pharmacol. Sci., 4, 450-454, 1983 or Pharmacol Rev., 58 (3), 621-81, 2006).
An average value from 4 wells of each combination was calculated from the obtained data, and a cell survival rate normalized against a control supplemented with a medium containing a vehicle was calculated. A Fa (fraction of affect) value was calculated by subtracting the cell survival rate from 1. Median effect analysis software CalcuSyn 2.0 (CalcuSyn, Inc.) for calculation by the median effect method was used in the calculation of CI.
As for the combinations of the concentrations of both the drugs for calculating CI, a Fa value closer to 1 presumably means a concentration range in which one of the drugs had too strong an effect, and a Fa value closer to 0 presumably means a concentration range in which any of the drugs had too weak an effect. Since these concentration ranges were not appropriate for the discussion of a synergistic effect, combinations that satisfied 0.2 S Fa 0.8 were extracted from the combinations of the respective concentrations of Compound 1 and the other antitumor agent on the basis of the calculated Fa value.
An effect of combined use was determined as shown in the table below (Pharmacol Rev., 58 (3), p. 621-81, 2006).

[1] = Compound 1 0.137 nM + Cisplatin 2062 nM, ratio 1:15030, NCI-N87
[2] = Compound 1 0.137 nM + Gemcitabine 1.37 nM, ratio 1:10, NCI-N87
[3] = Compound 1 0.137 nM + Gemcitabine 4.12 nM, ratio 1:30, NCI-N87
[4] = Compound 1 0.137 nM + Gemcitabine 12.3 nM, ratio 1:90, NCI-N87
[5] = Compound 1 0.137 nM + Trifluridine 12346 nM, ratio 1:90000, NCI-N87
[6] = Compound 1 0.412 nM + Cisplatin 2062 nM, ratio 1:5010, NCI-N87
[7] = Compound 1 0.412 nM + Cisplatin 6185 nM, ratio 1:15030, NCI-N87
[8] = Compound 1 0.412 nM + FdUrd 4115 nM, ratio 1:10000, NCI-N87
[9] = Compound 1 0.412 nM + FdUrd 12346 nM, ratio 1:30000, NCI-N87
[10] = Compound 1 0.412 nM + FdUrd 37037 nM, ratio 1:90000, NCI-N87
[11] = Compound 1 0.412 nM + Trifluridine 1372 nM, ratio 1:3333, NCI-N87
[12] = Compound 1 0.412 nM + Trifluridine 4115 nM, ratio 1:10000, NCI-N87
[13] = Compound 1 0.412 nM + Trifluridine 12346 nM, ratio 1:30000, NCI-N87
[14] = Compound 1 0.412 nM + Trifluridine 37037 nM, ratio 1:90000, NCI-N87
[15] = Compound 1 1.24 nM + Cisplatin 6185 nM, ratio 1:5010, NCI-N87
[16] = Compound 1 1.24 nM + Cisplatin 18556 nM, ratio 1:15030, NCI-N87
[17] = Compound 1 1.24 nM + FdUrd 12346 nM, ratio 1:10000, NCI-N87
[18] = Compound 1 1.24 nM + FdUrd 37037 nM, ratio 1:30000, NCI-N87
[19] = Compound 1 1.24 nM + FdUrd 111111 nM, ratio 1:90000, NCI-N87
[20] = Compound 1 1.24 nM + Gemcitabine 1.37 nM, ratio 1:1.1, NCI-N87
[21] = Compound 1 1.24 nM + Gemcitabine 4.12 nM, ratio 1:3.3, NCI-N87
[22] = Compound 1 1.24 nM + Gemcitabine 12.3 nM, ratio 1:10, NCI-N87
[23] = Compound 1 1.24 nM + Gemcitabine 37.0 nM, ratio 1:30, NCI-N87
[24] = Compound 1 1.24 nM + Gemcitabine 111 nM, ratio 1:90, NCI-N87
[25] = Compound 1 1.24 nM + Paclitaxel 5.56 nM, ratio 1:4.5, NCI-N87
[26] = Compound 1 1.24 nM + Trifluridine 1372 nM, ratio 1:1111, NCI-N87
[27] = Compound 1 1.24 nM + Trifluridine 4115 nM, ratio 1:3333, NCI-N87
[28] = Compound 1 1.24 nM + Trifluridine 12346 nM, ratio 1:10000, NCI-N87
[29] = Compound 1 1.24 nM + Trifluridine 37037 nM, ratio 1:30000, NCI-N87
[30] = Compound 1 1.24 nM + Trifluridine 111111 nM, ratio 1:90000, NCI-N87
[31] = Compound 1 3.70 nM + Cisplatin 2062 nM, ratio 1:557, NCI-N87
[32] = Compound 1 3.70 nM + Cisplatin 6185 nM, ratio 1:1670, NCI-N87
[33] = Compound 1 3.70 nM + Cisplatin 18556 nM, ratio 1:5010, NCI-N87
[34] = Compound 1 3.70 nM + FdUrd 4115 nM, ratio 1:1111, NCI-N87
[35] = Compound 1 3.70 nM + FdUrd 12346 nM, ratio 1:3333, NCI-N87
[36] = Compound 1 3.70 nM + FdUrd 37037 nM, ratio 1:10000, NCI-N87
[37] = Compound 1 3.70 nM + FdUrd 111111 nM, ratio 1:30000, NCI-N87

Structure (SMILES): C=CC(=O)N1CCC[C@@H](n2nc(C(=O)Nc3ccc(CC(=O)N(C)C)c(C)c3C)c3c(N)ncnc32)C1 [Compound 1, (R)-1-(1-acryloylpiperidin-3-yl)-4-amino-N-(4-(2-(dimethylamino)-2-oxoethyl)-2,3-dimethylphenyl)-1H-pyrazolo[3,4-d]pyrimidine-3-carboxamide]
- CI [1]: 0.62
- Fa [1]: 0.39
- CI [2]: 0.03
- Fa [2]: 0.69
- CI [3]: 0.37
- Fa [3]: 0.68
- CI [4]: 0.01
- Fa [4]: 0.73
- CI [5]: 0.26
- Fa [5]: 0.43
- CI [6]: 0.64
- Fa [6]: 0.36
- CI [7]: 0.57
- Fa [7]: 0.55
- CI [8]: 0.39
- Fa [8]: 0.25
- CI [9]: 0.46
- Fa [9]: 0.30
- CI [10]: 0.63
- Fa [10]: 0.41
- CI [11]: 0.35
- Fa [11]: 0.26
- CI [12]: 0.65
- Fa [12]: 0.26
- CI [13]: 0.38
- Fa [13]: 0.41
- CI [14]: 0.34
- Fa [14]: 0.54
- CI [15]: 0.40
- Fa [15]: 0.60
- CI [16]: 0.42
- Fa [16]: 0.72
- CI [17]: 0.58
- Fa [17]: 0.33
- CI [18]: 0.70
- Fa [18]: 0.39
- CI [19]: 0.39
- Fa [19]: 0.54
- CI [20]: 0.07
- Fa [20]: 0.70
- CI [21]: 0.06
- Fa [21]: 0.71
- CI [22]: 0.04
- Fa [22]: 0.77
- CI [23]: 0.05
- Fa [23]: 0.73
- CI [24]: 0.05
- Fa [24]: 0.72
- CI [25]: 0.45
- Fa [25]: 0.50
- CI [26]: 0.78
- Fa [26]: 0.24
- CI [27]: 0.71
- Fa [27]: 0.31
- CI [28]: 0.37
- Fa [28]: 0.48
- CI [29]: 0.41
- Fa [29]: 0.55
- CI [30]: 0.68
- Fa [30]: 0.59
- CI [31]: 0.58
- Fa [31]: 0.54
- CI [32]: 0.38
- Fa [32]: 0.67
- CI [33]: 0.42
- Fa [33]: 0.75
- CI [34]: 0.82
- Fa [34]: 0.39
- CI [35]: 0.58
- Fa [35]: 0.47
- CI [36]: 0.41
- Fa [36]: 0.56
- CI [37]: 0.60
- Fa [37]: 0.57
